Measurements as given in US20020081574A1, “Methods for identifying inhibitors of helicase C virus” (priority 1996, published 2002).

Tests used:
HCV NS3 RNA helicase = molecular target: T1, HCV NS3 RNA helicase (Hepatitis C virus genotype 1a, UniProt P27958); assay type: biochemical; settings: for helicase activity levels reduced when substituting for Mn^+2: divalent cation tested at 3 mM
T1 construct: derived from the full length, native polypeptide (residues 1027-1657); made in house; host or cells: Spodoptera frugiperda Sf9 cells, recombinant baculovirus bacNS3-5B (polyprotein residues 1027-3011 expressed and processed)

HCV = settings: cited from earlier work

T1 sequence (P27958 1027-1657): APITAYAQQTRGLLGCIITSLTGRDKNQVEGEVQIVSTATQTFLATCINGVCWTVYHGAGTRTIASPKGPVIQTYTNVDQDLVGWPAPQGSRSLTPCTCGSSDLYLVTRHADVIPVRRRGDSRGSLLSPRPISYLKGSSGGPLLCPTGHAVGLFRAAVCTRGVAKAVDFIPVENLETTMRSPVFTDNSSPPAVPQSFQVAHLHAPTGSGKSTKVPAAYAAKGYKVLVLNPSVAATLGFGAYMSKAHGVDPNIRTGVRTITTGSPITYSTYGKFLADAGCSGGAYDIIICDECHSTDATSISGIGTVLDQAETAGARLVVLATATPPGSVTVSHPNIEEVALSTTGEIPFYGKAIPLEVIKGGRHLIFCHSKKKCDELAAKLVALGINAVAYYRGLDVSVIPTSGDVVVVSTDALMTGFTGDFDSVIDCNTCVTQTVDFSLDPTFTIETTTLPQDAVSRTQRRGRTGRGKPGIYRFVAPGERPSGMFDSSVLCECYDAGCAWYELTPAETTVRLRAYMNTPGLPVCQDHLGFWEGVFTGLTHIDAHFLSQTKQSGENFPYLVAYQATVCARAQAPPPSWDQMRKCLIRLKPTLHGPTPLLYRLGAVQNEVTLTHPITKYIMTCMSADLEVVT

Compound	helicase activity levels reduced when substituting for Mn^+2 (HCV NS3 RNA helicase) [fold]	effect of monovalent cations on HCV NS3 helicase activity (HCV NS3 RNA helicase)	other results
[Zn+2] [Zn^+2]	2		
interferon alpha [IFN-α]			improved serum liver enzyme response (HCV; IFN treatment): 20-40 % of patients; sustained improvement of aminotransferase levels (HCV; responders): 10-20 % of patients
[Cu+2] [Cu^+2]	7		
[K+] [K^+]		inhibit	
[Ca+2] [Ca^+2]	3		
[Na+] [Na^+]		inhibit	
